Assay results from ChEMBL document CHEMBL5233226 (Eur J Med Chem, 2020).
One block for each compound: values may come before it.

Key:
Plasma kallikrein [1] = target: T1, Plasma kallikrein (Homo sapiens, UniProt P03952); assay: Inhibition of human plasma kallikrein using H-D-Pro-Phe-Arg-p-nitroaniline as substrate assessed as inhibition constant
Plasma kallikrein [2] = target: T1, Plasma kallikrein; assay: Inhibition of human plasma kallikrein incubated for 1 hrs
Coagulation factor XII [3] = target: T2, Coagulation factor XII (Homo sapiens, UniProt P00748); assay: Inhibition of human fXIIa incubated for 1 hrs
T2 sequence (P00748 whole entry): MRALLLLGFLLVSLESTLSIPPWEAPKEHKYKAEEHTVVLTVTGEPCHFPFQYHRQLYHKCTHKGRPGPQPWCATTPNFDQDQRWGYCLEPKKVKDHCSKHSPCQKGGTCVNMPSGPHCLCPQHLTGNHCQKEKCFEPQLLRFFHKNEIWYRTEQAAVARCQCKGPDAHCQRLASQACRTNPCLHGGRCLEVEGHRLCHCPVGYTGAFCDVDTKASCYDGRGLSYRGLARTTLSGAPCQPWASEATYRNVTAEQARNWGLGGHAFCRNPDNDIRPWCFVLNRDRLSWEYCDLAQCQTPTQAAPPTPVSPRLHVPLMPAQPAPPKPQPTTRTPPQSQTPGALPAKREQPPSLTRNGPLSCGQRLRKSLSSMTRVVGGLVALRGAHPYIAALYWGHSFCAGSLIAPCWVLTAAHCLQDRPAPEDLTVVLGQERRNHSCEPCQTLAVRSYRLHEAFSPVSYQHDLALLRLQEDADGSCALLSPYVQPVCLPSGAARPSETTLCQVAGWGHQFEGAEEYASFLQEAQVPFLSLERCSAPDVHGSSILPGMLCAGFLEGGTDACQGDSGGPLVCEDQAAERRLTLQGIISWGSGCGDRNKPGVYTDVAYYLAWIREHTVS

Plasma kallikrein [4] = target: T1, Plasma kallikrein; assay: Inhibition of human plasma kallikrein usingPro-Phe-Arg-AMC as substrate incubated for 5 mins; type: single protein
Plasma kallikrein [5] = target: T1, Plasma kallikrein; assay: Inhibition of plasma kallikrein (unknown origin)
Kallikrein-1 [6] = target: T3, Kallikrein-1 (Homo sapiens, UniProt P06870); assay: Inhibition of human KLK1
Coagulation factor XI [7] = target: T4, Coagulation factor XI (Homo sapiens, UniProt P03951); assay: Inhibition of human fXIa
Coagulation factor XII [8] = target: T2, Coagulation factor XII; assay: Inhibition of fXIIa (unknown origin)
Coagulation factor XI [9] = target: T4, Coagulation factor XI; assay: Inhibition of fXIa (unknown origin)
Coagulation factor X = Coagulation factor X (Homo sapiens, UniProt P00742); assay: Inhibition of fXa (unknown origin)
Prothrombin [10] = target: T5, Prothrombin (Homo sapiens, UniProt P00734); assay: Inhibition of thrombin (unknown origin)
Kallikrein-1 [11] = target: T3, Kallikrein-1; assay: Inhibition of KLK1 (unknown origin)
Plasma kallikrein [12] = target: T1, Plasma kallikrein; assay: Inhibition of human plasma kallikrein using H-DPro-Phe-Arg-AFC as substrate
Trypsin [13] = target: T6, Trypsin (Homo sapiens, UniProt P07477+P07478+P35030); assay: Inhibition of trypsin (unknown origin); type: protein assay
Plasminogen [14] = target: T7, Plasminogen (Homo sapiens, UniProt P00747); assay: Inhibition of plasmin (unknown origin)
[15] = target: Urokinase-type plasminogen activator (Homo sapiens, UniProt P00749); assay: Inhibition of Urokinase (unknown origin)
Trypsin [16] = target: T6, Trypsin; assay: Inhibition of human trypsin; type: protein assay
Coagulation factor XII [17] = target: T2, Coagulation factor XII; assay: Inhibition of human fXIIa using H-DPro-Phe-Arg-AFC as substrate
Prothrombin [18] = target: T5, Prothrombin; assay: Inhibition of human thrombin
Coagulation factor XI [19] = target: T4, Coagulation factor XI; assay: Inhibition of human fXIa using Z-Gly-Pro-Arg-AFC as substrate
Plasminogen [20] = target: T7, Plasminogen; assay: Inhibition of human plasmin
Coagulation factor XI [21] = target: T4, Coagulation factor XI; assay: Inhibition of human fXIa incubated for 1 hrs
Prothrombin [22] = target: T5, Prothrombin; assay: Inhibition of human thrombin by fluorescence based analysis
Plasminogen [23] = target: T7, Plasminogen; assay: Inhibition of human plasmin by fluorescence based analysis

T1 sequence (P03952 20-390 limits assumed): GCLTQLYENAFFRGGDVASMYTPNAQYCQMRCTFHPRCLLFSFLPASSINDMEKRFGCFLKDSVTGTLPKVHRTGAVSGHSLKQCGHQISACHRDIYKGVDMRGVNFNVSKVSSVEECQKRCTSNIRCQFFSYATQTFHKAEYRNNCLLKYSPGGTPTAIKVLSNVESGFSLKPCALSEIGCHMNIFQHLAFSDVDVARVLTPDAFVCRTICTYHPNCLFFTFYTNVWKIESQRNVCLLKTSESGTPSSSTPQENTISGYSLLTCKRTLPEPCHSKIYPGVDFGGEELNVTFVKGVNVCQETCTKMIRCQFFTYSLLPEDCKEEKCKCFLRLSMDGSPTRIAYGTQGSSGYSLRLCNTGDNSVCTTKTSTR
T1 sequence (P03952 391-638 limits assumed): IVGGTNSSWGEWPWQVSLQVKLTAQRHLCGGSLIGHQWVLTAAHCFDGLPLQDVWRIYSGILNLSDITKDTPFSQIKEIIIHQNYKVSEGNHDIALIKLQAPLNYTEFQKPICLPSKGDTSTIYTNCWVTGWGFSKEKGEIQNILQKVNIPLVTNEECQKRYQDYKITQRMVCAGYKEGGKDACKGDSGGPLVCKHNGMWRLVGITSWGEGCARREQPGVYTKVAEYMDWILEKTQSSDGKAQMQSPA
T3 sequence (P06870 whole entry): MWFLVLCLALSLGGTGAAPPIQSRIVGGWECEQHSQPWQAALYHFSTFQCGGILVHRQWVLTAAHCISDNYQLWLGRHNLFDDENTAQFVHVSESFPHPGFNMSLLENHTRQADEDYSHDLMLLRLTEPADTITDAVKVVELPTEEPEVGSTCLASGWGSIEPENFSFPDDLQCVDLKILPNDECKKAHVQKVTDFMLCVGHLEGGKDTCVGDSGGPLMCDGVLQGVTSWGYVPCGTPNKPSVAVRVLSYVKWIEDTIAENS
T7 sequence (P00747 97-580 limits assumed): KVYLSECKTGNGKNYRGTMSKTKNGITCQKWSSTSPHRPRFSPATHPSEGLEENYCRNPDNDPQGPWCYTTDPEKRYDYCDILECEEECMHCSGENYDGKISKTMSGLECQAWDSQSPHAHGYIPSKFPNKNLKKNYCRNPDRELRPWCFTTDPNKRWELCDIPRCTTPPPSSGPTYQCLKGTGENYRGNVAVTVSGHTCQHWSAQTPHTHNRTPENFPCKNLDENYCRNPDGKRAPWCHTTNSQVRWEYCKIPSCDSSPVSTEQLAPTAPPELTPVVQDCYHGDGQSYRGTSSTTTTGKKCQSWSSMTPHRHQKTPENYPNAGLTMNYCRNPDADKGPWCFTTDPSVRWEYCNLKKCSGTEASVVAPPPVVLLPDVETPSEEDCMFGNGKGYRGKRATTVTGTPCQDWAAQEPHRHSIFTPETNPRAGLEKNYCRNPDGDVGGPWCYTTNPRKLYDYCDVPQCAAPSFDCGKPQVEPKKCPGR
T7 sequence (P00747 581-810 limits assumed): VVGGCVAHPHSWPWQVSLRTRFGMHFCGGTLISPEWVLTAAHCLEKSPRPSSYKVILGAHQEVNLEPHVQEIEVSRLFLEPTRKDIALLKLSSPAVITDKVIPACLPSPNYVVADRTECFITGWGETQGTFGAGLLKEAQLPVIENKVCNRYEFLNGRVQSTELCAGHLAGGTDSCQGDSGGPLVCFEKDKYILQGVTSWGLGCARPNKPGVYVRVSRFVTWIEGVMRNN
T4 sequence (P03951 19-387 limits assumed): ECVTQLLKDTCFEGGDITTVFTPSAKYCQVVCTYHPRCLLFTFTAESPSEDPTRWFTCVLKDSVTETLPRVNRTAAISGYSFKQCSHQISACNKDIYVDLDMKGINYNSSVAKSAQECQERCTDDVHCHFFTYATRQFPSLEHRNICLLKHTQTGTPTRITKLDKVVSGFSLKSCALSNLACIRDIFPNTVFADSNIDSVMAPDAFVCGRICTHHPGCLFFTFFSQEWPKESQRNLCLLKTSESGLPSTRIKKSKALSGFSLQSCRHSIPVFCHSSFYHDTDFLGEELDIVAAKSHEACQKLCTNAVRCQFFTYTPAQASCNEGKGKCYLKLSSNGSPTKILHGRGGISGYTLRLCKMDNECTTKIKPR
T4 sequence (P03951 388-625 limits assumed): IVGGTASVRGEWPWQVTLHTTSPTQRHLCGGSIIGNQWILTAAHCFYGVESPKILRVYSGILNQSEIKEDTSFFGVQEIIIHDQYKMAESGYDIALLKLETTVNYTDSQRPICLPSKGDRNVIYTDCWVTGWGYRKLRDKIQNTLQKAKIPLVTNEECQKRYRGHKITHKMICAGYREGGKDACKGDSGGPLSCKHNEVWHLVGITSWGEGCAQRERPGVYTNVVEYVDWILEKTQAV
Coagulation factor X, sequence (P00742 41-179 limits assumed): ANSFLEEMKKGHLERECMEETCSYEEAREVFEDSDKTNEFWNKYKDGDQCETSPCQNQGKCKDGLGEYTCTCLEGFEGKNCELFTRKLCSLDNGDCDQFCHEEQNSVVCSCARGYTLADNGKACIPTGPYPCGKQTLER
Coagulation factor X, sequence (P00742 235-488 limits assumed): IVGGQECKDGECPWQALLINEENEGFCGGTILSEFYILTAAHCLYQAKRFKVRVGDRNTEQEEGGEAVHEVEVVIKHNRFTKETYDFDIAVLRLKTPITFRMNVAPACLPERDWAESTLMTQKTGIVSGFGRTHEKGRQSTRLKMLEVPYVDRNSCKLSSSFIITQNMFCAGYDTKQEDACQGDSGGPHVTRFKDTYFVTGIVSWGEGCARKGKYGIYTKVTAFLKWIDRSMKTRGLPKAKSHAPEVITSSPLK

IC50 (Plasma kallikrein [1]): < 50 nM
SMILES: CO[C@@H]1C[C@H](C(=O)Nc2cc(C(N)(CCC3CC3)c3ccccn3)ccc2F)N(C(=O)Nc2ccc(Cl)cn2)C1 (some centres undefined)

IC50 (Plasma kallikrein [1]): 100 nM
SMILES: NCc1cccc(-n2nc(C(F)(F)F)cc2C(=O)Nc2cc(C(OCC3CC3)c3ccccc3O)ccc2F)c1 (centres undefined)

IC50 (Plasma kallikrein [1]): < 50 nM
SMILES: NC(CCC1CC1)(c1ccc(F)c(NC(=O)[C@H]2C[C@@H](O)CN2C(=O)Nc2ccc(Cl)cc2)c1)c1ccccn1 (some centres undefined)

IC50 (Plasma kallikrein [2]): 2 nM
IC50 (Coagulation factor XII [3]): 3600 nM
SMILES: Cc1nc(N)cc2c1CNC(=O)c1cnn(c1)Cc1ccc(Cn3cccn3)cc1OCCC/C=C\CCO2

IC50 (Plasma kallikrein [1]): < 50 nM
SMILES: NC(CCC1CC1)(c1ccc(F)c(NC(=O)[C@H]2CC(F)(F)CN2C(=O)Nc2ccc(Cl)cn2)c1)c1ccccn1 (some centres undefined)

IC50 (Plasma kallikrein [1]): < 50 nM
SMILES: CO[C@@H]1C[C@H](C(=O)Nc2cc(C(N)(CCC3CC3)c3cccc(C#N)c3)ccc2F)N(C(=O)Nc2ccc(Cl)cn2)C1 (some centres undefined)

IC50 (Plasma kallikrein [4]): < 100 nM
SMILES: Clc1cnc2ccc(Cc3nc4ncnc(NCc5n[nH]c6ccc(Cl)cc56)c4[nH]3)cc2c1

IC50 (Plasma kallikrein [5]): 2.9 nM
IC50 (Kallikrein-1 [6]): > 40000 nM
IC50 (Coagulation factor XI [7]): > 10000 nM
SMILES: Cc1cc(C)n(Cc2ccc(Cn3cc(C(=O)NCc4c(C)cc(N)nc4C)nn3)cc2)n1

IC50 (Plasma kallikrein [5]): 90 nM
IC50 (Coagulation factor XII [8]): > 10000 nM
IC50 (Coagulation factor XI [9]): > 10000 nM
IC50 (Coagulation factor X): > 10000 nM
IC50 (Prothrombin [10]): > 10000 nM
SMILES: N=C(N)c1ccc(CNC(=O)c2cnn(Cc3ccccc3)c2)cc1

IC50 (Plasma kallikrein [1]): > 50000 nM
SMILES: CCCOC(c1ccccc1)c1cccc(NC(=O)c2cc(C(F)(F)F)nn2-c2cccc(CN)c2)c1 (centres undefined)

IC50 (Kallikrein-1 [11]): 2.9 nM
IC50 (Coagulation factor XI [9]): 2.9 nM
SMILES: Nc1nn(Cc2ccc(Cn3ccccc3=O)cc2)cc1C(=O)NCCOc1cccc(Cl)c1

IC50 (Plasma kallikrein [12]): 0.56 nM
SMILES: COCc1nn(Cc2ccc(Cn3cccn3)cc2)cc1C(=O)NCc1ccc2c(N)nccc2c1C

IC50 (Plasma kallikrein [1]): 100 nM
SMILES: N=C(N)c1cccc(-n2nc(C(F)(F)F)cc2C(=O)Nc2cc(C(NCC3CC3)c3ccccc3)ccc2F)c1 (centres undefined)

IC50 (Trypsin [13]): 12000 nM
IC50 (Plasma kallikrein [5]): 1300 nM
IC50 (Plasminogen [14]): 620000 nM
IC50 [15]: 350000 nM
SMILES: NCC1CCC(C(=O)N[C@@H](Cc2ccccc2)C(=O)Nc2ccc(CC(=O)O)cc2)CC1 (some centres undefined)

IC50 (Plasma kallikrein [5]): 15000 nM
IC50 (Plasminogen [14]): 370000 nM
SMILES: CC(C)COC(=O)c1ccc(NC(=O)[C@H](CCCNC(=N)N)NC(=O)C2CCC(CN)CC2)cc1 (some centres undefined)

IC50 (Plasma kallikrein [4]): < 100 nM
SMILES: Fc1cc2[nH]cc(Cl)c2cc1CNc1ncnc2nc(Cc3ccc4ncc(C(F)(F)F)cc4c3)[nH]c12

IC50 (Trypsin [16]): > 40000 nM
IC50 (Kallikrein-1 [11]): > 4000 nM
IC50 (Coagulation factor XII [17]): > 4000 nM
IC50 (Prothrombin [18]): > 40000 nM
IC50 (Coagulation factor XI [19]): > 40000 nM
IC50 (Plasminogen [20]): > 40000 nM
SMILES: COc1ccnc(CNC(=O)c2cn(Cc3ccc(Cn4ccccc4=O)cc3)nc2C(F)(F)F)c1F

IC50 (Plasma kallikrein [4]): < 100 nM
SMILES: Cc1cc(N)nc(C)c1CNC(=O)c1cncc(Cc2ccc3ncc(Cl)cc3c2)c1

IC50 (Plasma kallikrein [2]): 2.4 nM
IC50 (Coagulation factor XI [21]): 106000 nM
SMILES: Cc1cc(N)nc(C)c1CNC(=O)c1cnn(Cc2ccc(Cn3cccn3)cc2)c1

SMILES: CCOc1ccc(C[C@@H](NC(=O)c2ccccc2)C(=O)N[C@@H](Cc2ccccc2)C(=O)NCc2ccc(CN)cc2)cc1
IC50 (Plasminogen [14]): 22 nM
IC50 (Coagulation factor XII [8]): > 50000 nM
IC50 (Prothrombin [22]): > 10000 nM
IC50 (Plasminogen [23]): > 10000 nM
IC50 (Prothrombin [10]): > 10000 nM

IC50 (Plasma kallikrein [4]): < 100 nM
SMILES: Cc1cc(N)nc(C)c1CNc1ncnc2nc(Cc3ccc4ncc(C(F)(F)F)cc4c3)[nH]c12

IC50 (Plasma kallikrein [12]): 10 nM
SMILES: CCOc1ccc(C[C@@H](NC(=O)c2sccc2C)C(=O)N[C@@H](Cc2ccccc2)C(=O)NCc2ccc(CN)cc2)cc1
